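The compound was tested at five concentrations on cells cultured in 96-well plates, with a 48-hour exposure period. At the TGI there is no net growth.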
Each compound was assayed on K-562 leukemia (assay: NCI tumour cell line growth inhibition, 48 h).

Point of comparison: CC1(C)CN=C(c2ccc3c(c2)Cc2cc(C4=NCC(C)(C)N4)ccc2-3)N1, TGI 90.4 µM. Against it:
- COc1cc(OCc2nc3ccccc3n3cccc23)cc(OC)c1OC — 3.8-fold lower, 23.8 µM
- CC(=O)C(I(OS(=O)(=O)c1ccc(C)cc1)c1ccccc1)=P(c1ccccc1)(c1ccccc1)c1ccccc1 — higher, > 100 µM
- ClC1(Cl)C(c2ccccc2)C1c1ccccc1 (configuration not stated) — higher, > 100 µM
- CN1C2CCC1CC(CCOC(c1ccc(F)cc1)c1ccc(F)cc1)C2 (configuration not stated) — 2.5-fold lower, 35.8 µM
- O=C(c1cc(Cl)cc(Cl)c1)N(C(=O)N1CCN(c2ccccc2)CC1)c1ccccc1 — higher, > 100 µM
- CCN(CC)C1Oc2cc3c(cc2C(c2ccc(OC)cc2)C1C)OCO3 (configuration not stated) — 2-fold lower, 45.9 µM

Each compound was assayed on RXF 393 renal (assay: NCI tumour cell line growth inhibition, 48 h).

Point of comparison: CN1C2CCC1CC(CCOC(c1ccc(F)cc1)c1ccc(F)cc1)C2 (configuration not stated), TGI 22.6 µM. Against it:
- CC1(C)CN=C(c2ccc3c(c2)Cc2cc(C4=NCC(C)(C)N4)ccc2-3)N1 — higher, > 100 µM
- COc1cc(OCc2nc3ccccc3n3cccc23)cc(OC)c1OC — higher, > 100 µM
- CC(=O)C(I(OS(=O)(=O)c1ccc(C)cc1)c1ccccc1)=P(c1ccccc1)(c1ccccc1)c1ccccc1 — higher, > 100 µM
- ClC1(Cl)C(c2ccccc2)C1c1ccccc1 (configuration not stated) — 1.7-fold higher, 37.8 µM
- O=C(c1cc(Cl)cc(Cl)c1)N(C(=O)N1CCN(c2ccccc2)CC1)c1ccccc1 — higher, > 100 µM
- CCN(CC)C1Oc2cc3c(cc2C(c2ccc(OC)cc2)C1C)OCO3 (configuration not stated) — 1.8-fold higher, 40.6 µM

Each compound was assayed on PC-3 prostate (assay: NCI tumour cell line growth inhibition, 48 h).

Point of comparison: CN1C2CCC1CC(CCOC(c1ccc(F)cc1)c1ccc(F)cc1)C2 (configuration not stated), TGI 29.6 µM. Against it:
- CC1(C)CN=C(c2ccc3c(c2)Cc2cc(C4=NCC(C)(C)N4)ccc2-3)N1 — higher, > 100 µM
- COc1cc(OCc2nc3ccccc3n3cccc23)cc(OC)c1OC — higher, > 100 µM
- CC(=O)C(I(OS(=O)(=O)c1ccc(C)cc1)c1ccccc1)=P(c1ccccc1)(c1ccccc1)c1ccccc1 — higher, > 100 µM
- ClC1(Cl)C(c2ccccc2)C1c1ccccc1 (configuration not stated) — higher, > 100 µM
- O=C(c1cc(Cl)cc(Cl)c1)N(C(=O)N1CCN(c2ccccc2)CC1)c1ccccc1 — higher, > 100 µM
- CCN(CC)C1Oc2cc3c(cc2C(c2ccc(OC)cc2)C1C)OCO3 (configuration not stated) — 2.5-fold higher, 72.6 µM

The compounds below were run on BT-549 breast (assay: NCI tumour cell line growth inhibition, 48 h).

Point of comparison: CCN(CC)C1Oc2cc3c(cc2C(c2ccc(OC)cc2)C1C)OCO3 (configuration not stated), TGI 67 µM. Against it:
- CC1(C)CN=C(c2ccc3c(c2)Cc2cc(C4=NCC(C)(C)N4)ccc2-3)N1 — higher, > 100 µM
- COc1cc(OCc2nc3ccccc3n3cccc23)cc(OC)c1OC — higher, > 100 µM
- CC(=O)C(I(OS(=O)(=O)c1ccc(C)cc1)c1ccccc1)=P(c1ccccc1)(c1ccccc1)c1ccccc1 — within 1.5-fold, 46.3 µM
- ClC1(Cl)C(c2ccccc2)C1c1ccccc1 (configuration not stated) — within 1.5-fold, 77.4 µM
- CN1C2CCC1CC(CCOC(c1ccc(F)cc1)c1ccc(F)cc1)C2 (configuration not stated) — 2.2-fold lower, 31.1 µM
- O=C(c1cc(Cl)cc(Cl)c1)N(C(=O)N1CCN(c2ccccc2)CC1)c1ccccc1 — higher, > 100 µM

The compounds below were run on MDA-MB-231 breast (assay: NCI tumour cell line growth inhibition, 48 h).

Point of comparison: CN1C2CCC1CC(CCOC(c1ccc(F)cc1)c1ccc(F)cc1)C2 (configuration not stated), TGI 29.7 µM. Against it:
- CC1(C)CN=C(c2ccc3c(c2)Cc2cc(C4=NCC(C)(C)N4)ccc2-3)N1 — higher, > 100 µM
- COc1cc(OCc2nc3ccccc3n3cccc23)cc(OC)c1OC — higher, > 100 µM
- CC(=O)C(I(OS(=O)(=O)c1ccc(C)cc1)c1ccccc1)=P(c1ccccc1)(c1ccccc1)c1ccccc1 — 2.3-fold higher, 69.3 µM
- ClC1(Cl)C(c2ccccc2)C1c1ccccc1 (configuration not stated) — higher, > 100 µM
- O=C(c1cc(Cl)cc(Cl)c1)N(C(=O)N1CCN(c2ccccc2)CC1)c1ccccc1 — higher, > 100 µM
- CCN(CC)C1Oc2cc3c(cc2C(c2ccc(OC)cc2)C1C)OCO3 (configuration not stated) — 1.7-fold higher, 49.2 µM

These compounds were tested on SK-MEL-5 melanoma (assay: NCI tumour cell line growth inhibition, 48 h).

Point of comparison: CN1C2CCC1CC(CCOC(c1ccc(F)cc1)c1ccc(F)cc1)C2 (configuration not stated), TGI 21.3 µM. Against it:
- CC1(C)CN=C(c2ccc3c(c2)Cc2cc(C4=NCC(C)(C)N4)ccc2-3)N1 — higher, > 100 µM
- COc1cc(OCc2nc3ccccc3n3cccc23)cc(OC)c1OC — 2.3-fold lower, 9.35 µM
- CC(=O)C(I(OS(=O)(=O)c1ccc(C)cc1)c1ccccc1)=P(c1ccccc1)(c1ccccc1)c1ccccc1 — 3-fold higher, 63.3 µM
- O=C(c1cc(Cl)cc(Cl)c1)N(C(=O)N1CCN(c2ccccc2)CC1)c1ccccc1 — 3.6-fold higher, 75.7 µM
- CCN(CC)C1Oc2cc3c(cc2C(c2ccc(OC)cc2)C1C)OCO3 (configuration not stated) — within 1.5-fold, 31.9 µM

Each compound was assayed on OVCAR-3 ovarian (assay: NCI tumour cell line growth inhibition, 48 h).

Point of comparison: CCN(CC)C1Oc2cc3c(cc2C(c2ccc(OC)cc2)C1C)OCO3 (configuration not stated), TGI 37.1 µM. Against it:
- CC1(C)CN=C(c2ccc3c(c2)Cc2cc(C4=NCC(C)(C)N4)ccc2-3)N1 — higher, > 100 µM
- COc1cc(OCc2nc3ccccc3n3cccc23)cc(OC)c1OC — higher, > 60.9 µM
- CC(=O)C(I(OS(=O)(=O)c1ccc(C)cc1)c1ccccc1)=P(c1ccccc1)(c1ccccc1)c1ccccc1 — 1.5-fold higher, 56.1 µM
- ClC1(Cl)C(c2ccccc2)C1c1ccccc1 (configuration not stated) — 2.4-fold higher, 87.8 µM
- CN1C2CCC1CC(CCOC(c1ccc(F)cc1)c1ccc(F)cc1)C2 (configuration not stated) — within 1.5-fold, 32.4 µM
- O=C(c1cc(Cl)cc(Cl)c1)N(C(=O)N1CCN(c2ccccc2)CC1)c1ccccc1 — higher, > 100 µM

These compounds were tested on SN12C renal (assay: NCI tumour cell line growth inhibition, 48 h).

Point of comparison: CCN(CC)C1Oc2cc3c(cc2C(c2ccc(OC)cc2)C1C)OCO3 (configuration not stated), TGI 63 µM. Against it:
- CC1(C)CN=C(c2ccc3c(c2)Cc2cc(C4=NCC(C)(C)N4)ccc2-3)N1 — higher, > 100 µM
- COc1cc(OCc2nc3ccccc3n3cccc23)cc(OC)c1OC — higher, > 88.9 µM
- CC(=O)C(I(OS(=O)(=O)c1ccc(C)cc1)c1ccccc1)=P(c1ccccc1)(c1ccccc1)c1ccccc1 — within 1.5-fold, 69.2 µM
- ClC1(Cl)C(c2ccccc2)C1c1ccccc1 (configuration not stated) — higher, > 100 µM
- CN1C2CCC1CC(CCOC(c1ccc(F)cc1)c1ccc(F)cc1)C2 (configuration not stated) — 1.6-fold lower, 38.2 µM
- O=C(c1cc(Cl)cc(Cl)c1)N(C(=O)N1CCN(c2ccccc2)CC1)c1ccccc1 — higher, > 100 µM

The compounds below were run on MDA-N (assay: NCI tumour cell line growth inhibition, 48 h).

Point of comparison: ClC1(Cl)C(c2ccccc2)C1c1ccccc1 (configuration not stated), TGI 35.2 µM. Against it:
- CC1(C)CN=C(c2ccc3c(c2)Cc2cc(C4=NCC(C)(C)N4)ccc2-3)N1 — higher, > 100 µM
- COc1cc(OCc2nc3ccccc3n3cccc23)cc(OC)c1OC — higher, > 100 µM
- CC(=O)C(I(OS(=O)(=O)c1ccc(C)cc1)c1ccccc1)=P(c1ccccc1)(c1ccccc1)c1ccccc1 — within 1.5-fold, 33.2 µM
- CN1C2CCC1CC(CCOC(c1ccc(F)cc1)c1ccc(F)cc1)C2 (configuration not stated) — within 1.5-fold, 37.5 µM
- O=C(c1cc(Cl)cc(Cl)c1)N(C(=O)N1CCN(c2ccccc2)CC1)c1ccccc1 — within 1.5-fold, 30.3 µM
- CCN(CC)C1Oc2cc3c(cc2C(c2ccc(OC)cc2)C1C)OCO3 (configuration not stated) — 1.9-fold higher, 65.5 µM

Each compound was assayed on NCI-H23 lung (assay: NCI tumour cell line growth inhibition, 48 h).

Point of comparison: ClC1(Cl)C(c2ccccc2)C1c1ccccc1 (configuration not stated), TGI 76.8 µM. Against it:
- CC1(C)CN=C(c2ccc3c(c2)Cc2cc(C4=NCC(C)(C)N4)ccc2-3)N1 — higher, > 100 µM
- COc1cc(OCc2nc3ccccc3n3cccc23)cc(OC)c1OC — higher, > 100 µM
- CC(=O)C(I(OS(=O)(=O)c1ccc(C)cc1)c1ccccc1)=P(c1ccccc1)(c1ccccc1)c1ccccc1 — 1.8-fold lower, 42.7 µM
- CN1C2CCC1CC(CCOC(c1ccc(F)cc1)c1ccc(F)cc1)C2 (configuration not stated) — 1.8-fold lower, 42.1 µM
- O=C(c1cc(Cl)cc(Cl)c1)N(C(=O)N1CCN(c2ccccc2)CC1)c1ccccc1 — higher, > 100 µM
- CCN(CC)C1Oc2cc3c(cc2C(c2ccc(OC)cc2)C1C)OCO3 (configuration not stated) — 1.5-fold lower, 51 µM

What follows are compounds tested on HCT-15 colon (assay: NCI tumour cell line growth inhibition, 48 h).

Point of comparison: CCN(CC)C1Oc2cc3c(cc2C(c2ccc(OC)cc2)C1C)OCO3 (configuration not stated), TGI 98.1 µM. Against it:
- CC1(C)CN=C(c2ccc3c(c2)Cc2cc(C4=NCC(C)(C)N4)ccc2-3)N1 — higher, > 100 µM
- COc1cc(OCc2nc3ccccc3n3cccc23)cc(OC)c1OC — higher, > 100 µM
- CC(=O)C(I(OS(=O)(=O)c1ccc(C)cc1)c1ccccc1)=P(c1ccccc1)(c1ccccc1)c1ccccc1 — higher, > 100 µM
- ClC1(Cl)C(c2ccccc2)C1c1ccccc1 (configuration not stated) — higher, > 100 µM
- CN1C2CCC1CC(CCOC(c1ccc(F)cc1)c1ccc(F)cc1)C2 (configuration not stated) — 3-fold lower, 32.3 µM
- O=C(c1cc(Cl)cc(Cl)c1)N(C(=O)N1CCN(c2ccccc2)CC1)c1ccccc1 — higher, > 100 µM

These compounds were tested on NCI/ADR-RES ovarian (assay: NCI tumour cell line growth inhibition, 48 h).

Point of comparison: ClC1(Cl)C(c2ccccc2)C1c1ccccc1 (configuration not stated), TGI 30.8 µM. Against it:
- CC1(C)CN=C(c2ccc3c(c2)Cc2cc(C4=NCC(C)(C)N4)ccc2-3)N1 — higher, > 100 µM
- COc1cc(OCc2nc3ccccc3n3cccc23)cc(OC)c1OC — higher, > 80.4 µM
- CC(=O)C(I(OS(=O)(=O)c1ccc(C)cc1)c1ccccc1)=P(c1ccccc1)(c1ccccc1)c1ccccc1 — higher, > 100 µM
- CN1C2CCC1CC(CCOC(c1ccc(F)cc1)c1ccc(F)cc1)C2 (configuration not stated) — within 1.5-fold, 36.5 µM
- O=C(c1cc(Cl)cc(Cl)c1)N(C(=O)N1CCN(c2ccccc2)CC1)c1ccccc1 — higher, > 100 µM

What follows are compounds tested on MDA-MB-435 (assay: NCI tumour cell line growth inhibition, 48 h).

Point of comparison: CC1(C)CN=C(c2ccc3c(c2)Cc2cc(C4=NCC(C)(C)N4)ccc2-3)N1, TGI 98.9 µM. Against it:
- COc1cc(OCc2nc3ccccc3n3cccc23)cc(OC)c1OC — not separable, > 52.4 µM
- CC(=O)C(I(OS(=O)(=O)c1ccc(C)cc1)c1ccccc1)=P(c1ccccc1)(c1ccccc1)c1ccccc1 — 3.1-fold lower, 32.4 µM
- ClC1(Cl)C(c2ccccc2)C1c1ccccc1 (configuration not stated) — within 1.5-fold, 68.6 µM
- CN1C2CCC1CC(CCOC(c1ccc(F)cc1)c1ccc(F)cc1)C2 (configuration not stated) — 3.8-fold lower, 25.7 µM
- O=C(c1cc(Cl)cc(Cl)c1)N(C(=O)N1CCN(c2ccccc2)CC1)c1ccccc1 — 2-fold lower, 48.5 µM
- CCN(CC)C1Oc2cc3c(cc2C(c2ccc(OC)cc2)C1C)OCO3 (configuration not stated) — 2.5-fold lower, 39.1 µM

What follows are compounds tested on SNB-19 CNS (assay: NCI tumour cell line growth inhibition, 48 h).

Point of comparison: CCN(CC)C1Oc2cc3c(cc2C(c2ccc(OC)cc2)C1C)OCO3 (configuration not stated), TGI 83.7 µM. Against it:
- CC1(C)CN=C(c2ccc3c(c2)Cc2cc(C4=NCC(C)(C)N4)ccc2-3)N1 — higher, > 100 µM
- COc1cc(OCc2nc3ccccc3n3cccc23)cc(OC)c1OC — higher, > 100 µM
- CC(=O)C(I(OS(=O)(=O)c1ccc(C)cc1)c1ccccc1)=P(c1ccccc1)(c1ccccc1)c1ccccc1 — higher, > 100 µM
- ClC1(Cl)C(c2ccccc2)C1c1ccccc1 (configuration not stated) — higher, > 100 µM
- CN1C2CCC1CC(CCOC(c1ccc(F)cc1)c1ccc(F)cc1)C2 (configuration not stated) — 2-fold lower, 41.6 µM
- O=C(c1cc(Cl)cc(Cl)c1)N(C(=O)N1CCN(c2ccccc2)CC1)c1ccccc1 — higher, > 100 µM

These compounds were tested on HCT-116 colon (assay: NCI tumour cell line growth inhibition, 48 h).

With CC1(C)CN=C(c2ccc3c(c2)Cc2cc(C4=NCC(C)(C)N4)ccc2-3)N1 the TGI was > 100 µM.
